Like-named read-outs stand apart in the source and are kept apart here.
Key:
[1] = test system: human coronary artery endothelial cells (hCaEC); assay: 3H-thymidine uptake proliferation assay, hCaEC; assay type: cell-based; conditions: Homo sapiens, Endothelial cell, 3 h; read-out: hCaEC IC50 Mean ± SEM
human monocytes = assay: cytokine production by LPS-stimulated human monocytes (ELISA); assay type: cell-based
Method: (§1) Experiments were performed to determine the effects of zotarolimus, sirolimus and dexamethasone on the production of TNFα, IL-6 and MCP-1 by activated human monocytes In addition to monocytes and macrophages two other key cell types are involved in the etiology of restenosis, arterial smooth muscle and endothelial cells. These cells are activated and produce cytokines in response to TNFα. […] The activation of cytokine production by human coronary artery smooth muscle and endothelial cells following TNFα treatment was determined by measuring interleukine-8 (IL-8), MCP-1 and IL-6 production. As shown by the results of the experiments described below, the ability of these compounds to inhibit the production of cytokines supports their use in combination as anti-restenotic agents since these cytokines play a role in the development of restenosis. […] After 24 hours, the supernatants were carefully collected and TNFα, IL-6 and MCP-1 levels determined by ELISA. Primary cultures of human coronary artery endothelial and smooth muscle cells were obtained from Cambrex and maintained as described by the vendor. […] After 24 hours the supernatants were removed and replaced with media containing TNFα (5 ng/ml) in the presence and absence of various concentrations of zotarolimus, dexamethasone or sirolimus. The cells were incubated for 24 hours and the supernatants carefully removed and frozen until measurement. Cytokine levels were measured in the supernatants by sandwich ELISA.

[2] = test system: human coronary artery smooth muscle cells (hCaSMC); assay: cytokine production by TNFα-treated human coronary artery smooth muscle cells (ELISA); assay type: cell-based; conditions: hCaSMC, TNFα (5 ng/ml), 24 hours
Method: as §1

[3] = Phase 1 multiple escalating dose study, QD intravenous infusion for 14 days, safety and pharmacokinetics; assay type: in vivo, human; conditions: for AUC(0-inf) / Cmax / clearance / Vd / half-life / AUC: human, whole blood; for AUC: Day 14, blood
Method: The present study was designed to evaluate the pharmacokinetics of zotarolimus following multiple dosing and to assess its safety while maximizing systemic exposure of healthy subjects. […] The study investigated pharmacokinetics and safety of zotarolimus in a Phase 1, multiple dose-escalation study following multiple intravenous infusions of 200, 400 and 800 μg doses, every day for fourteen consecutive days in healthy subjects.
Phase 1, multiple-escalating dose, double-blind, placebo-controlled, randomized study. Seventy-two subjects equally divided in 3 once-daily (QD) regimens (200, 400 or 800 μg QD with 16 active and 8 placebo per regimen) were administered a 60-minute QD IV infusion of zotarolimus for 14 consecutive days. Blood samples were collected over 24 hours following the first dose, before dosing on days 10, 11, 12, 13, and for 168 hours following Day 14 dose. Urine samples were collected over 24 hours on days 1, 14, 16, 18 and 20. Blood and urine zotarolimus concentrations were determined using a validated LC/MS/MS method. Pharmacokinetic parameters were determined by compartmental analysis. All Day-AUC0-∞ (area under blood concentration-time curve from time 0 to infinity including all 14 doses) was calculated. Dose and time-linearity and achievement of steady-state were evaluated. Fraction of drug eliminated in urine was determined.
Within each group, subjects were equally divided at the two study sites with each site enrolling 12 subjects (zotarolimus, eight subjects; placebo four subjects). The dosing scheme within each dose group is presented below:
Subjects received, under fasting conditions, a single 60-minute daily (QD) intravenous infusion of 200, 400, or 800 μg of zotarolimus or a matching intravenous infusion of placebo for Groups I, II and III, respectively on Study Days 1 through 14. The drug was administered via a syringe pump connected to a y-site device, which also infused 125-150 mL of 5% aqueous dextrose solution (D5W) over 60 minutes. The groups were dosed sequentially with at least 7 days separating the last dose of the previous group and the first dose of the next group during which time safety data from the previous group was analyzed. Dose escalation was dependent on the safety analysis of the lower dose group.
Five (5)-mL blood samples were collected in potassium EDTA containing tubes to evaluate zotarolimus concentrations prior to dosing (0 hour), and at 0.25, 0.5, 1.0, 1 hour 5 min, 1.25, 1.5, 2, 3, 4, 8, 12, 18 and 24 hours after starting infusion on Study Days 1 and 14. Additional samples were collected at 36, 48, 72, 96, 120, 144 and 168 hours after starting infusion on Study Day 14 and before dosing on Days 10, 11, 12 and 13. Urine was collected in containers without preservatives over the following intervals: 0 to 6, 6 to 12, 12 to 18 and 18 to 24 hours after starting the infusion on Study Days 1, 14, 16, 18 and 20.
Blood and urine concentrations of zotarolimus were determined using a validated liquid/liquid extraction HPLC tandem mass spectrometric method (LC-MS/MS). The lower limit of quantification of zotarolimus was 0.20 ng/mL using 0.3 mL blood sample and 0.50 ng/mL using 0.3 mL urine sample.
Safety was evaluated based on adverse event, physical examination, vital signs, ECG, injection site and laboratory tests assessments
The pharmacokinetic parameter values of zotarolimus were estimated for individual subjects using compartmental analysis. Data from the first dose on Study Day 1, the last dose on Study Day 14 and the trough concentrations on Study Days 10, 11, 12 and 13 were simultaneously modeled for each individual subject. […]

[4] = test system: human coronary artery endothelial cells (hCaEC); assay: cytokine production by TNFα-treated human coronary artery endothelial cells (ELISA); assay type: cell-based; conditions: TNFα (5 ng/ml), 24 hours
Method: as §1

Compound: CO[C@H]1C[C@@H]2CC[C@@H](C)[C@@](O)(O2)C(=O)C(=O)N2CCCC[C@H]2C(=O)O[C@H]([C@H](C)C[C@@H]2CC[C@H](n3cnnn3)[C@H](OC)C2)CC(=O)[C@H](C)/C=C(\C)[C@@H](O)[C@@H](OC)C(=O)[C@H](C)C[C@H](C)/C=C/C=C/C=C/1C [zotarolimus]
- IC50 [1]: 3.2 ± 0.5 nM
- MCP-1 production by human monocytes in vitro (human monocytes; FIG. 10): dose-dependently inhibit MCP-1 production
- production of TNFα and IL-6 by human monocytes (human monocytes; FIGS. 10 and 11): not demonstrated
- Maximal Inhibitory Activity, IL-6 (human monocytes; Monocytes, 24 hours): − (− indicates maximal inhibitory activity less than 50% of control)
- Maximal Inhibitory Activity, MCP-1 (human monocytes; Monocytes, 24 hours): +++ (+++ indicates maximal inhibitory activity of 75-100% of control)
- Maximal Inhibitory Activity, TNF (human monocytes; Monocytes, 24 hours): − (− indicates maximal inhibitory activity less than 50% of control)
- Maximal Inhibitory Activity, IL-6 [2]: − (− indicates maximal inhibitory activity less than 50% of control)
- Maximal Inhibitory Activity, Il-8 [2]: − (− indicates maximal inhibitory activity less than 50% of control)
- Maximal Inhibitory Activity, MCP-1 [2]: − (− indicates maximal inhibitory activity less than 50% of control)
- fraction of dose recovered in the urine ([3]; 800 μg QD dose group, within a 24-hour period on Day 1 and Day 14): approximately 0.1%
- most common treatment-emergent adverse events ([3]; 200, 400, 800 μg QD IV for 14 days): pain, headache, injection site reaction, dry skin, abdominal pain, diarrhea and rash
- V1, range of means over the studied regimens ([3]; 200-800 μg QD IV for 14 days): 11.3 to 13.1 L
- steady state for QD dosing reached ([3]; first trough samples measured on Day 10): ≤ 10 days
- AUC(0-inf) ([3]; intravenous, 200 μg QD dose group, read-out: median All Day −AUC0-∞): 677 ng·h/mL
- AUC(0-inf) ([3]; intravenous, 400 μg QD dose group, read-out: median All Day −AUC0-∞): 1440 ng·h/mL
- AUC(0-inf) ([3]; intravenous, 800 μg QD dose group, read-out: median All Day −AUC0-∞): 2400 ng·h/mL
- Cmax ([3]; 200 μg QD IV infusion for 14 days, blood, secondary predicted parameter): 11.2 ± 1.1 ng/mL
- clearance ([3]; 200 μg QD IV infusion for 14 days, blood, secondary predicted parameter, read-out: CL (converted)): 70 mL/min
- Vd ([3]; 200 μg QD IV infusion for 14 days, blood, secondary predicted parameter, read-out: Vss): 92.5 ± 13 L
- half-life ([3]; 200 μg QD IV infusion for 14 days, blood, harmonic mean ± pseudo-standard deviation, read-out: t½ (converted)): 24.7 ± 4.6 h
- AUC ([3]; 200 μg QD IV infusion, secondary predicted parameter): 49 ± 6.2 ng·h/mL
- Cmax ([3]; 400 μg QD IV infusion for 14 days, blood, secondary predicted parameter): 21.4 ± 2.4 ng/mL
- clearance ([3]; 400 μg QD IV infusion for 14 days, blood, secondary predicted parameter, read-out: CL (converted)): 66.7 mL/min
- Vd ([3]; 400 μg QD IV infusion for 14 days, blood, secondary predicted parameter, read-out: Vss): 112 ± 21.1 L
- half-life ([3]; 400 μg QD IV infusion for 14 days, blood, harmonic mean ± pseudo-standard deviation, read-out: t½ (converted)): 31 ± 4.6 h
- AUC ([3]; 400 μg QD IV infusion, secondary predicted parameter): 104 ± 19 ng·h/mL
- Cmax ([3]; 800 μg QD IV infusion for 14 days, blood, secondary predicted parameter): 38.7 ± 6.3 ng/mL
- clearance ([3]; 800 μg QD IV infusion for 14 days, blood, secondary predicted parameter, read-out: CL (converted)): 76.7 mL/min
- Vd ([3]; 800 μg QD IV infusion for 14 days, blood, secondary predicted parameter, read-out: Vss): 118 ± 18.7 L
- half-life ([3]; 800 μg QD IV infusion for 14 days, blood, harmonic mean ± pseudo-standard deviation, read-out: t½ (converted)): 30 ± 4.1 h
- AUC ([3]; 800 μg QD IV infusion, secondary predicted parameter): 180 ± 17.4 ng·h/mL
- clearance ([3]; 200-800 μg QD IV for 14 days, read-out: CL, range of means over the studied regimens): 66.7 to 76.7 mL/min
- Vd ([3]; 200-800 μg QD IV for 14 days, read-out: Vss, range of means over the studied regimens): 92.5 to 118 L
- half-life ([3]; 200-800 μg QD IV for 14 days, read-out: terminal elimination t1/2, range of means over the studied regimens): 24.7 to 31 h
- AUC(0-inf) ([3]; 200-800 μg QD IV, time 0 to infinity including all 14 doses, read-out: All Day-AUC0-∞, range over the studied regimens): 677 to 2400 ng·h/mL
- dose proportionality and time dependence of pharmacokinetics ([3]; intravenously for 14 consecutive days): dose proportional and time invariant
- Maximal Inhibitory Activity, IL-6 [4]: − (− indicates maximal inhibitory activity less than 50% of control)
- Maximal Inhibitory Activity, Il-8 [4]: − (− indicates maximal inhibitory activity less than 50% of control)
- Maximal Inhibitory Activity, MCP-1 [4]: − (− indicates maximal inhibitory activity less than 50% of control)

Source: patent US8394398B2 (Abbott Laboratories, priority 1997, dated 2013)
